Read-outs that look alike come from different tables or passages of the source.

Data set [1] concerns concavaline A-stimulated human lymphocytes. The data set can be described thus: MTT test, inhibition of lymphocyte activation with ConA. Type of data set: cell-based. As to conditions: 5 μg/ml, mean (x). The source says: The proliferation response of isolated lymphocytes to polyclonal mitogens belongs to the most important parameters of specific cell immunity. Most of the human lymphocytes occur in quiet state. Antigens or polyclonal mitogens, however, are capable of activating lymphatic cells, which is accompanied by dramatic changes of their cell metabolism (enhanced mitochondrial activity, protein and nucleic acid synthesis, formation of blastic cells and proliferations). Substances having the capability to suppress such processes show immunosuppressive activity in clinical conditions and, therefore, these tests can be used for screening tests of immunosuppressive activity in vitro. On this account, we use the above-mentioned MTT test, which evaluates both the survival and the proliferation activity of quiet vs. polyclonal-mitogen (concavaline A, 5 μg/ml)-stimulated human lymphocytes to screen the immunosuppressive activity of new substances (Jegorov et al., J. Mass. Spetrom., 2006).
(Tetrazolium dyes change colour on reduction, which living cells bring about.)

Data set [2] relates to CEM (T-lymphoblastic leukaemia). The data set can be described thus: MTT cytotoxic test, CEM. The data set is classed as cell-based. As to conditions: CEM cells, mean (x), read-out: Cytotoxic and antiproliferation activity MTT test (IC50, μM) CEM x. The source says: (§1) In order to evaluate antitumour activity of the new prepared substances in vitro, we used the MTT cytotoxic test on cell lines derived from normal tissues and tumours. In particular, they included the NIH 3T3 (mouse fibroblasts), K562 (human myeloid leukaemia), K562-tax (human myeloid leukaemia resistant to taxol and the overexpressing protein of the PgP multiple drug resistance), CEM (T-lymphoblastic leukaemia), CEM-DNR-bulk (T-lymphoblastic leukaemia resistant to doxorubicine, lacking the expression of target gene for inhibitors of topoisomerase II alpha) and the line A549 (human lung adenocarcinoma).

The test system of data set [3] is CEM-DNR-bulk (T-lymphoblastic leukaemia resistant to doxorubicine). As to the kind of experiment: MTT cytotoxic test, CEM-DNR-bulk. Conditions: CEM-DNR-BULK cells, mean (x); read-out: Cytotoxic and antiproliferation activity MTT test (IC50, μM) CEM-DNR-BULK x. Type of data set: cell-based.
From the text: as §1

Data set [4] deals with K562 (human myeloid leukaemia). As to the kind of experiment: MTT cytotoxic test, K562. As to conditions: K 562 cells, mean (x), read-out: Cytotoxic and antiproliferation activity MTT test (IC50, μM) K 562 x. The data set is classed as cell-based.
From the text: as §1

Data set [5] relates to K562-tax (human myeloid leukaemia resistant to taxol). As to the kind of experiment: MTT cytotoxic test, K562-tax. Type of data set: cell-based. As to conditions: K562-TAX cells, mean (x), read-out: Cytotoxic and antiproliferation activity MTT test (IC50, μM) K562-TAX x.
From the text: as §1

Data set [6] has as its system A549 (human lung adenocarcinoma). The data set can be described thus: MTT cytotoxic test, A549. The data set is classed as cell-based. Conditions: A 549 cells, mean (x), read-out: Cytotoxic and antiproliferation activity MTT test (IC50, μM) A 549 x.
From the text: as §1

With `O=CNCCn1cnc2cc(-c3[nH]c4ccccc4c(=O)c3O)ccc21` [—CH2CH2NHCHO], the IC50 in data set [1] was found to be 1.1 µM.

In the case of `CCCN(CCC)c1ccc(-c2[nH]c3ccccc3c(=O)c2O)cc1[N+](=O)[O-]` [—N(CH2CH2CH3)2], the IC50 in data set [2] was 0.7 µM; in data set [3] it was 2.2 µM; in data set [4], 0.6 µM; in data set [5], 1.2 µM; in data set [6], 1.1 µM; in data set [1], 0.9 µM.

Broadly, the melting point is the temperature, or range, at which the solid turns liquid. For `O=c1c(O)c(-c2ccc(N3CCN(CCO)CC3)c([N+](=O)[O-])c2)[nH]c2ccccc12`, the melting point lay in the range of 218 to 221 °C.

With `O=c1c(O)c(-c2ccc3c(c2)ncn3CCSCCO)[nH]c2ccccc12` [—(CH2)2S(CH2)2OH], the IC50 amounted to 0.8 µM in data set [2]; 2.2 µM in data set [3]; 3.1 µM in data set [4]; 4.5 µM in data set [5]; 3.6 µM in data set [6].

As to `O=c1c(O)c(-c2ccc(NCCCCO)c([N+](=O)[O-])c2)[nH]c2ccccc12` [—NH(CH2)4OH], the IC50 in data set [2] was determined as 0.7 µM; in data set [3], 15.1 µM; in data set [4] it was 1.8 µM; in data set [5], 8.6 µM; in data set [6] it was 5.7 µM; in data set [1] it was 1.1 µM.

Take `O=c1c(O)c(-c2ccc(NCCCCCO)c([N+](=O)[O-])c2)[nH]c2ccccc12` [—NH(CH2)5OH]: the IC50 in data set [2] came out at 1 µM; in data set [3] it was 10.8 µM; in data set [4] it was 2.8 µM; in data set [5], 5.7 µM; in data set [6], 5.3 µM; in data set [1], 0.6 µM.

`O=c1c(O)c(-c2ccc(Sc3ccccc3)c([N+](=O)[O-])c2)[nH]c2ccccc12` [Example 7, 3-Hydroxy-2-[3-nitro-4-(phenylthio)phenyl]quinoline-4(1H)-one]: the melting point was 322 to 324 °C.

For `O=c1c(O)c(-c2ccc(NCCCO)c([N+](=O)[O-])c2)[nH]c2ccccc12` [—NH(CH2)3OH, 3-Hydroxy-2-{4-[(3-hydroxypropyl)amino]-3-nitrophenyl}quinoline-4(1H)-one], the melting point fell in the range of 233 to 236 °C. Further, the IC50 in data set [2] (Homo sapiens, CCRF-CEM) turned out to be 1.4 µM. Also, the IC50 in data set [3] is 46.3 µM. In data set [4] (Homo sapiens, K562), the IC50 turned out to be 6.2 µM. In data set [5] (Homo sapiens), the IC50 stood at 12.9 µM. Also, in data set [6] (Homo sapiens, A549), the IC50 turned out to be 12.4 µM. Besides, the IC50 in data set [1] (Lymphocyte) is 0.8 µM.

Take `CCCCCCn1cnc2cc(-c3[nH]c4ccccc4c(=O)c3O)ccc21` [—(CH2)5CH3]: the IC50 is 2.8 µM in data set [2]; 54 µM in data set [3]; 8.5 µM in data set [4]; 35 µM in data set [5]; 44.3 µM in data set [6].

For `O=c1c(O)c(-c2ccc(N(CCO)CCO)c([N+](=O)[O-])c2)[nH]c2ccccc12` [—N(CH2CH2OH)2], the IC50 in data set [2] was found to be 0.3 µM; in data set [3], 143 µM; in data set [4], 187 µM; in data set [5], 198 µM; in data set [6], 224 µM; in data set [1] it was 0.9 µM.

In the case of `O=c1c(O)c(-c2ccc(F)c([N+](=O)[O-])c2)[nH]c2ccccc12` [F], the IC50 in data set [1] was 3.8 µM.

With `O=c1c(O)c(-c2ccc(-n3ccnc3)c([N+](=O)[O-])c2)[nH]c2ccccc12` [Example 8, 3-Hydroxy-2-[4-(1H-imidazole-1-yl)-3-nitrophenyl]quinoline-4(1H)-one], the melting point lay within 278 to 280 °C.

With `O=c1c(O)c(-c2ccc(Cl)c([N+](=O)[O-])c2)[nH]c2ccccc12` [Cl, 2-(4-Chlorine-3-nitrophenyl)-3-hydroxyquinoline-4(1H)-one], the IC50 in data set [2] came out at 2.6 µM; in data set [3], 3.5 µM; in data set [4], 2.3 µM; in data set [5] it was 3.2 µM; in data set [6], 4.2 µM.

The molecule `CCNc1ccc(-c2[nH]c3ccccc3c(=O)c2O)cc1[N+](=O)[O-]` [Example 6, 2-[4-(Ethylamino)-3-nitrophenyl]-3-hydroxyquinoline-4(1H)-one] gave a melting point of 282 to 285 °C.

Consider `CC(C)Nc1ccc(-c2[nH]c3ccccc3c(=O)c2O)cc1[N+](=O)[O-]` [—NHCH(CH3)2], for which the IC50 in data set [2] was found to be 1.6 µM; in data set [3], 6.8 µM; in data set [4], 2.1 µM; in data set [5], 3 µM; in data set [6] it was 2.8 µM; in data set [1] it was 4.8 µM.

`O=c1c(O)c(-c2ccc(N3CCN(CCOCCO)CC3)c([N+](=O)[O-])c2)[nH]c2ccccc12` [Example 5, 3-Hydroxy-2-(4-{4-[2-(2-hydroxyethoxy)ethyl]piperazine-1-yl}-3-nitrophenyl)quinoline-4(1H)-one] yielded a melting point of 203 to 204 °C.

For the molecule `O=c1c(O)c(-c2ccc3c(c2)ncn3CC(F)(F)F)[nH]c2ccccc12`, in data set [1], the IC50 was 4.2 µM.

Turning to `O=c1c(O)c(-c2ccc(NCCO)c([N+](=O)[O-])c2)[nH]c2ccccc12` [—NH(CH2)2OH], the IC50 in data set [2] was 2.7 µM; in data set [3], 98.8 µM; in data set [4], 7.3 µM; in data set [5] it was 44.9 µM; in data set [6], 46.8 µM; in data set [1], 3.8 µM.

As to `C/C=C/CCSc1ccc(-c2[nH]c3ccccc3c(=O)c2O)cc1[N+](=O)[O-]`, the IC50 turned out to be 2.1 µM in data set [2]; 3.2 µM in data set [3]; 9.3 µM in data set [4]; 5.2 µM in data set [5]; 4.3 µM in data set [6].

Turning to `CCN(C)c1ccc(-c2[nH]c3ccccc3c(=O)c2O)cc1[N+](=O)[O-]` [—N(CH3)(CH2CH3)], the IC50 in data set [2] worked out at 1.7 µM; in data set [3], 129 µM; in data set [4], 0.7 µM; in data set [5], 163 µM; in data set [6] it was 66.5 µM; in data set [1], 5.7 µM.

Regarding `CCN(CC)CCn1cnc2cc(-c3[nH]c4ccccc4c(=O)c3O)ccc21` [—(CH2)2N(C2H5)2], the IC50 in data set [2] was determined as 5.2 µM; in data set [3] it was 71.2 µM; in data set [4], 2.1 µM; in data set [5], 6.5 µM; in data set [6] it was 3.5 µM.

Source of the values: patent publication US8299092B2, “Derivatives of 2-phenyl-3-hydroxyquinoline-4(1H)-one and methods of their preparation and utilization” (Univerzita Palackeho, priority 2006, dated 2012).
